These results are taken from patent US20220204510A1, “2,3-DIHYDRO-1H-PYRROLIZINE-7-FORMAMIDE DERIVATIVE AND APPLICATION THEREOF” (CHIA TAI TIANQING PHARMACEUTICAL GROUP CO., LTD., priority 2018, published 2022).

pIC50: −log10 of the molar value. Bounds are passed on as bounds.

In one test the target is T1, CYP2C19 (Homo sapiens, UniProt P33261).
T1 construct: from tissue; host or cells: human liver microsomes
As to the kind of experiment: Inhibition of human liver microsomal cytochrome P450 isoenzymes. Particulars: human liver microsomes. It is filed as in vitro ADME. In general terms: Liver microsomes are a subcellular fraction often used to study metabolism.

A further test addresses T2, CYP1A2 (Homo sapiens, UniProt P05177).
T2 construct: from tissue; host or cells: human liver microsomes
T2 sequence (P05177 1-516): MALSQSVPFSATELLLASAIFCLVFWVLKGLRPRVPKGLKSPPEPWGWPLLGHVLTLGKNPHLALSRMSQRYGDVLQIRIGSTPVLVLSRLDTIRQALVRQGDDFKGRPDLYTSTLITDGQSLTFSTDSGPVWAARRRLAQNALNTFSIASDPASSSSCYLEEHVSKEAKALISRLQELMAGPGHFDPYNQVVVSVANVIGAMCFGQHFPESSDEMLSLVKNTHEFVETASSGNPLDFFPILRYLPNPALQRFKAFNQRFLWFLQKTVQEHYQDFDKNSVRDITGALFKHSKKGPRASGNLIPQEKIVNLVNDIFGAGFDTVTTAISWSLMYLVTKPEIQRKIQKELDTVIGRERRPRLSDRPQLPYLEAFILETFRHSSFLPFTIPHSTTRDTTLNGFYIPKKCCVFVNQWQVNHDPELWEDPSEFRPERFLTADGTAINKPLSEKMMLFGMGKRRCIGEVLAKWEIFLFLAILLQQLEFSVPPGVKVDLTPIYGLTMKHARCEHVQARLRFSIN
Described as above. In kind it is in vitro ADME. The following applies: human liver microsomes.

The target of a further test is T3, CYP2C9 (Homo sapiens, UniProt P11712).
T3 construct: from tissue; host or cells: human liver microsomes
The description is as above. In kind it is in vitro ADME. The following applies: human liver microsomes.

In another test the target is T4, CYP3A4 (Homo sapiens, UniProt P08684).
T4 construct: from tissue; host or cells: human liver microsomes
The description is as above. In kind it is in vitro ADME. Particulars: human liver microsomes.

Another test relates to hepatitis B virus. As to the kind of experiment: In vivo efficacy in the HDI/HBV mouse model. Particulars: HDI/HBV mice. From the text:
Experimental objective: to assay the efficacy of the compound against hepatitis B virus in mice through the HDI/HBV mouse model.
Preparation of compound: the solvent was an aqueous solution containing 10% polyethylene glycol-15 hydroxystearate; a certain amount of the test compounds 18 and 25 were separately dissolved in an aqueous solution containing 10% polyethylene glycol-15 hydroxystearate, and the mixtures were vortexed and sonicated to prepare uniform suspensions. The suspensions were stored at 4° C. for later use.
High pressure injection of the HBV plasmid DNA solution via the tail vein of mice: the day of plasmid injection was day 0, the day after injection was day 1, and so on. On day 0, all mice were injected with normal saline containing 10 μg of plasmid DNA via their tail veins at a dose of 8% of body weight, and the injection was completed within 5 s.
Administration: all mice were administered intragastrically twice a day (8/16 h interval) on day 1-6 and once on day 7. All mice were euthanized in the afternoon on day 7. The body weight of the mice, which was monitored every day, remained stable throughout the experiment.
Sample collection: blood was collected from the submandibular vein 4 h after the first administration in the morning on days 1, 3, and 5. All blood samples were collected in K2-EDTA anticoagulation tubes, and centrifuged for 10 min at 4° C., 7000 g to prepare about 40 μL of plasma. All mice were euthanized by CO2 four hours after administration in the morning on day 7. Blood was collected from the heart, and the plasma preparation method was the same as above. Two liver tissues were collected with 70-100 mg each, and quick-frozen by liquid nitrogen. After all samples were collected, they were stored in a −80° C. refrigerator for HBV DNA content detection.
Sample analysis: all plasma samples and liver samples were detected for HBV DNA by qPCR.

Setting [1] is: 30 mg/kg intragastrically twice a day.
The mark [2] stands for this setting: 10 mg/kg intragastrically twice a day.

T1 sequence (P33261 whole entry): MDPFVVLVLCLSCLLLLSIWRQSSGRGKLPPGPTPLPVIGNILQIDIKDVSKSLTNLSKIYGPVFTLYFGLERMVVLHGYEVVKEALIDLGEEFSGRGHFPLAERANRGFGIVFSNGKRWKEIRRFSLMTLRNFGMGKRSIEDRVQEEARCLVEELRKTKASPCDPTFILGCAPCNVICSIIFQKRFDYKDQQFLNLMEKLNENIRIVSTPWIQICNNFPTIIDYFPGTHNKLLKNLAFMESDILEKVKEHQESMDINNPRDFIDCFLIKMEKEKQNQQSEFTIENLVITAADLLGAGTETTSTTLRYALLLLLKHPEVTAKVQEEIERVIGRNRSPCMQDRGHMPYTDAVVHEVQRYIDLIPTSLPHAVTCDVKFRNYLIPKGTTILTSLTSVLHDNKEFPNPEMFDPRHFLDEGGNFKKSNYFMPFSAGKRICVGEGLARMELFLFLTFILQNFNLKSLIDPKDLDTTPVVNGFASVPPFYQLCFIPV
T3 sequence (P11712 whole entry): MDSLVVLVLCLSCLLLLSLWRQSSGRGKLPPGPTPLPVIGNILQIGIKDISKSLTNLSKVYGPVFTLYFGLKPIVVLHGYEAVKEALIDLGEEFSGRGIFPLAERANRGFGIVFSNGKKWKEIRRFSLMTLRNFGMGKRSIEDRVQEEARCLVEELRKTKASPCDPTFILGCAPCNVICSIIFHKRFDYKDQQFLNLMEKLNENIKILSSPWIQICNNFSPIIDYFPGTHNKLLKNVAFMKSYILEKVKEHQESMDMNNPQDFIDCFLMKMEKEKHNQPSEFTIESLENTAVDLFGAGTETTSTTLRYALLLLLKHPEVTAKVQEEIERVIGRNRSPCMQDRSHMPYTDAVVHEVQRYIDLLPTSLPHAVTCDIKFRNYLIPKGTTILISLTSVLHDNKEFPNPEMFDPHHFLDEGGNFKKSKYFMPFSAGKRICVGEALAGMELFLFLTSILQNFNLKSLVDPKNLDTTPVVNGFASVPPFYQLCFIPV
T4 sequence (P08684 whole entry): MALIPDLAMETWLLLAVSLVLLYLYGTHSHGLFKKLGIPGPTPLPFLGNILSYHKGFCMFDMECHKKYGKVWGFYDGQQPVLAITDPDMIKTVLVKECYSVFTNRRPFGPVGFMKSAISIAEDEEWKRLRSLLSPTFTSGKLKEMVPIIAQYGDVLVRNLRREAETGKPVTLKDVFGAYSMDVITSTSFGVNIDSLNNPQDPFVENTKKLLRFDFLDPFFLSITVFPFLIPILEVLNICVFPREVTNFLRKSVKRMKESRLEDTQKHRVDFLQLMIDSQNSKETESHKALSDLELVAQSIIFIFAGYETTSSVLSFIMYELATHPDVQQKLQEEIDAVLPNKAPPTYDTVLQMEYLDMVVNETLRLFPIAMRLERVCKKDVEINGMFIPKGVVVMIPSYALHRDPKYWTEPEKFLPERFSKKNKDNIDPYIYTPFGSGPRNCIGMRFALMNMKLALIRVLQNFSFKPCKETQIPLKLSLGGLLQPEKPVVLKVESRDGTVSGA

For the compound `C[C@]1(NC(=O)C(=O)c2c(Cl)c(C(=O)Nc3ccc(F)c(F)c3)c3n2CCC3)CC[C@H](CC(=O)O)CC1` [Compound 18], the negative-log IC50 (pIC50) on CYP2C19, against CYP1A2, against CYP2C9 and at CYP3A4 was less than 4.30 in each case. Further, the “HBV-DNA reduction Liver (day 7)” value in the test on hepatitis B virus (setting [1]) is on record as 1.99 Δ Log10 copies/100 ng. The “HBV-DNA reduction Plasma (day 5)” value in the test with hepatitis B virus (setting [1]) is on record as 2.84 Δ Log10 copies/μL.

Consider `C[C@]1(NC(=O)C(=O)c2c(Cl)c(C(=O)Nc3cc(F)c(F)c(F)c3)c3n2CCC3)CC[C@H](CC(=O)O)CC1` [Compound 25], for which the pIC50 against CYP2C19, against CYP1A2, against CYP2C9 and against CYP3A4 was less than 4.30 in each case. Moreover, the “HBV-DNA reduction Liver (day 7)” value was 0.94 Δ Log10 copies/100 ng in the test with hepatitis B virus (setting [2]) and 2.36 Δ Log10 copies/100 ng with hepatitis B virus (setting [1]). The “HBV-DNA reduction Plasma (day 5)” value with hepatitis B virus (setting [2]) is 2.0 Δ Log10 copies/μL; in the test on hepatitis B virus (setting [1]) it was 3.57 Δ Log10 copies/μL.
